Test results: US8053409B2, “Agent for prophylaxis of reflex sympathetic dystrophy after cerebral apoplexy” (Asahi Kasei Pharma Corporation, priority 2006, dated 2011)

Experiments:
[1] = tested on: patients with hemiplegia attributed to cerebrovascular disease (stroke); test: Test of prevention of onset of post-stroke RSD; type: in vivo, human
From the text: Test subjects were 33 patients with hemiplegia attributed to cerebrovascular disease (stroke) at Brunnstrom stage III or lower in either the upper limb or a finger on admission. Patients already developing RSD (shoulder-hand syndrome) on admission and patients with pain in the shoulder joint or swollen paralyzed limbs were excluded from the test. […] On the other hand, 21 test subjects were classified into a rehabilitation alone group (control group) and compared with the EL administration group. Physical therapy and therapeutic exercise, occupational therapy, and the management of the paralyzed limbs were performed thoroughly in all the cases. […] EL administration was initiated 11 to 59 days after an attack of stroke (25.8 days on average) and continued until 5 months after the attack of stroke. The same observation period was applied to the control group. The test subjects were diagnosed as developing RSD (shoulder-hand syndrome) if they had diffuse pain not localized to the shoulder joint, edema involving skin color changes, skin temperature abnormalities, and range of motion limitations, and the practice of their rehabilitation was restricted. These criteria agreed to Veldman's diagnostic criteria or diagnostic criteria, for CRPS-type 1 provided by the International Association for the Study of Pain.
Activities of daily living (ADL) were evaluated on the basis of the Barthel Index (BI) and the range of motion (ROM) of shoulder joint. The movable range of shoulder joint (also referred to as “shoulder ROM”) was regarded as restricted (Shoulder-ROM-restrictions were present.) if either abduction or flexion was restricted in measurement. The test subjects were also examined for sensory impairment, aphasia, and unilateral spatial neglect on admission.
Statistical analysis was conducted with unpaired t-test, Fisher's exact test, or Wilcoxon test, and 5% or lower significance level was regarded as being significant.

[2] = tested on: patients with hemiplegia attributed to cerebrovascular disease (stroke) who developed RSD (shoulder-hand syndrome); test: Test of treatment of post-stroke RSD; type: in vivo, human; details: therapeutic administration group, at completion of administration
Experimental: EL was administered after the onset of RSD (shoulder-hand syndrome) in the same use and dose as in Example 1 to 11 patients with hemiplegia attributed to cerebrovascular disease (stroke) at Brunnstrom stage III or lower in either the upper limb or a finger on admission, who developed RSD (shoulder-hand syndrome). These patients were classified into a therapeutic administration group. On the other hand, the EL administration group of Example 1 was compared as a control (preventive administration group) with the therapeutic administration group.

[3] = tested on: RSD triggered and developed by a trauma or surgical invasion; details: subjects having no anamnesis of RSD, after a trauma or surgical invasion; cited from earlier work
[4] = EL preventive administration group (12 subjects), 20 units intramuscularly once a week, continued until 5 months after stroke
[5] = preventive administration group, at completion of administration

Compound | Incidence of RSD converted to all patients with hemiplegia attributed to stroke in the facility ([1]; EL administration group, control group approximately 8.7%) | The number of test subjects developing post-stroke RSD: Developed [1, 4] | The number of test subjects developing post-stroke RSD: Not developed [1, 4] | Cases that developed RSD (incidence) ([1]; EL preventive administration group, 1 of the 12 cases, control group 52.4%) [%] | Incidence of RSD when EL administration was initiated within 48 days after stroke ([1]; cases with administration initiated within 48 days after stroke) [%] | Barthel index, Average ± SE [1, 5] | Barthel index, Median [1, 5] | No RSD, the number of persons [1, 5] | Incidence of RSD until discharge from hospital compared with the unadministered patient group ([1]; repetitive administration to hemiplegia patients without RSD on admission) | Barthel index, Average ± SE [2] | Barthel index, Median [2] | No RSD, the number of persons [2] | Preventive effect on the initial onset of RSD [3]
1-butyric acid-7-(L-2-aminobutyric acid)-26-L-aspartic acid-27-L-valine-29-L-alanine-calcitonin [elcatonin] | approximately 1.3% | 1 | 11 | 8.3 | 0 | 60.8 ± 9.3 | 72.5 | 11 | suppressed significantly and remarkably | 31.8 ± 7.8 | 25 | 0 | –
O=C1O[C@H]([C@@H](O)CO)C(O)=C1O [vitamin C] | – | – | – | – | – | – | – | – | – | – | – | – | preventive effect
